What all share (assay): relative viability (nuclei count vs DMSO), 5 days (fraction); higher = more cells survive
Compound in assay [1]: Cn1nnc2c(C(N)=O)ncn2c1=O [Temozolomide] + C[C@@H](Oc1cc(-c2cnn(C3CCNCC3)c2)cnc1N)c1c(Cl)ccc(F)c1Cl [Crizotinib] (partner 1 µM)
The procedure, abridged: (§1)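 Five library-drug doses in √10 steps were combined with a fixed anchor-drug dose, or a single drug was given alone, by pin tool to lung cancer cell lines in 1536-well plates the day after seeding. Nuclei were stained and counted after 5 days. Relative viability is the nuclei count in treated wells over that in vehicle wells, taken as the median of duplicate plates.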

Compound in assay [2]: Cn1nnc2c(C(N)=O)ncn2c1=O [Temozolomide] + COc1cc2c(Oc3ccc(NC(=O)C4(C(=O)Nc5ccc(F)cc5)CC4)cc3F)ccnc2cc1OCCCN1CCOCC1 [Foretinib] (partner 0.25 µM)
The procedure, abridged:
as §1

Compound in assay [3]: C[C@@H](C(=O)N[C@@H](C1CCCCC1)C(=O)N2CCC[C@H]2C(=O)N[C@@H]3[C@@H](CC4=CC=CC=C34)OCC#CC#CCO[C@@H]5CC6=CC=CC=C6[C@@H]5NC(=O)[C@@H]7CCCN7C(=O)[C@H](C8CCCCC8)NC(=O)[C@H](C)NC)NC [AZD5582] + NC(=O)Nc1cc(-c2cccc(F)c2)sc1C(=O)N[C@H]1CCCNC1 [AZD7762] (partner 0.2 µM)
The essentials: as §1

Compound in assay [4]: C[C@@H](C(=O)N[C@@H](C1CCCCC1)C(=O)N2CCC[C@H]2C(=O)N[C@@H]3[C@@H](CC4=CC=CC=C34)OCC#CC#CCO[C@@H]5CC6=CC=CC=C6[C@@H]5NC(=O)[C@@H]7CCCN7C(=O)[C@H](C8CCCCC8)NC(=O)[C@H](C)NC)NC [AZD5582] + O=C(CCCCCCC(=O)Nc1ccccc1)NO [Vorinostat] (partner 1 µM)
The essentials: as §1

Take PC-3 [JPC-3]: the relative viability turned out to be 0.993 in assay [1] (first compound 0.2 µM); 0.951 in assay [1] (first compound 0.6325 µM); 1.03 in assay [1] (first compound 2 µM); 0.974 in assay [1] (first compound 6.325 µM); 0.458 in assay [1] (first compound 20 µM); 1.11 in assay [2] (first compound 0.2 µM). The relative viability in assay [2] (first compound 0.6325 µM) was 1.03; in assay [2] (first compound 2 µM), 0.998; in assay [2] (first compound 6.325 µM), 1.03; in assay [2] (first compound 20 µM) it was 0.526; in assay [3] (first compound 0.001581 µM), 0.706; in assay [3] (first compound 0.005 µM), 0.617. In addition, the relative viability was found to be 0.73 in assay [3] (first compound 0.01581 µM); 0.423 in assay [3] (first compound 0.05 µM); 0.714 in assay [4] (first compound 0.001581 µM); 0.532 in assay [4] (first compound 0.005 µM); 0.664 in assay [4] (first compound 0.01581 µM); 0.43 in assay [4] (first compound 0.05 µM).
As for PC-14, the relative viability in assay [1] (first compound 0.2 µM) was 0.954; in assay [1] (first compound 0.6325 µM) it was 0.902; in assay [1] (first compound 2 µM), 0.829; in assay [1] (first compound 6.325 µM), 0.812; in assay [1] (first compound 20 µM), 0.732; in assay [2] (first compound 0.2 µM), 1.07. Besides, the relative viability is 0.98 in assay [2] (first compound 0.6325 µM); 1.03 in assay [2] (first compound 2 µM); 1.01 in assay [2] (first compound 6.325 µM); 0.202 in assay [2] (first compound 20 µM); 0.255 in assay [3] (first compound 0.001581 µM); 0.247 in assay [3] (first compound 0.005 µM). The relative viability stood at 0.294 in assay [3] (first compound 0.01581 µM); 0.183 in assay [3] (first compound 0.05 µM); 0.636 in assay [4] (first compound 0.001581 µM); 0.881 in assay [4] (first compound 0.005 µM); 0.406 in assay [4] (first compound 0.01581 µM); 0.687 in assay [4] (first compound 0.05 µM).
As for RERF-LC-KJ, the relative viability in assay [1] (first compound 0.2 µM) stood at 0.884; in assay [1] (first compound 0.6325 µM), 0.848; in assay [1] (first compound 2 µM) it was 0.838; in assay [1] (first compound 6.325 µM), 0.818; in assay [1] (first compound 20 µM), 0.833; in assay [2] (first compound 0.2 µM) it was 0.888. Also, the relative viability in assay [2] (first compound 0.6325 µM) is 0.928; in assay [2] (first compound 2 µM) it was 0.875; in assay [2] (first compound 6.325 µM) it was 0.936; in assay [2] (first compound 20 µM) it was 0.901; in assay [3] (first compound 0.001581 µM) it was 0.2; in assay [3] (first compound 0.005 µM), 0.414. The relative viability was determined as 0.855 in assay [3] (first compound 0.01581 µM); 0.491 in assay [3] (first compound 0.05 µM); 0.306 in assay [4] (first compound 0.001581 µM); 0.225 in assay [4] (first compound 0.005 µM); 0.655 in assay [4] (first compound 0.01581 µM); 0.283 in assay [4] (first compound 0.05 µM).

The values above are taken from the supplement of paper PMC10307832.
